Patent US6982348B2, “Aminoethanol derivatives” (Takeda Pharmaceutical Company Limited, priority 2001, dated 2006)

| Structure (SMILES) | melting point |
| --- | --- |
| O=C(CCCc1ccccc1)N[C@H](Cc1ccc(F)cc1)[C@@H](O)c1ccc(F)cc1 (racemic) [Example 147, N-((1RS,2SR)-2-(4-fluorophenyl)-1-((4-fluorophenyl)methyl)-2-hydroxyethyl)-4-phenylbutyramide] | 147 to 148 °C |
| COc1ccc(C[C@@H](NC(=O)c2cccc3ccccc23)[C@@H](O)c2ccc(F)cc2)cc1 (racemic) [Example 148, N-((1RS,2SR)-2-(4-fluorophenyl)-2-hydroxy-1-((4-(methyloxy)phenyl)methyl)ethyl)-1-naphthalenecarboxamide] | 198 to 199 °C |
| COc1ccc(C[C@@H](NC(=O)c2ccc(F)c3ccccc23)[C@@H](O)c2ccc(F)cc2)cc1 (racemic) [Example 149, 4-fluoro-N-((1RS,2SR)-2-(4-fluorophenyl)-2-hydroxy-1-((4-(methyloxy)phenyl)methyl)ethyl)-1-naphthalenecarboxamide] | 210 to 211 °C |
| COc1ccc(C[C@@H](NC(=O)C2CCCCC2)[C@@H](O)c2ccc(F)cc2)cc1 (racemic) [Example 150, N-((1RS,2SR)-2-(4-fluorophenyl)-2-hydroxy-1-((4-(methyloxy)phenyl)methyl)ethyl)cyclohexanecarboxamide] | 193 to 194 °C |
| COc1ccc(C[C@@H](NC(=O)CCCc2ccccc2)[C@@H](O)c2ccc(F)cc2)cc1 (racemic) [Example 151, N-((1RS,2SR)-2-(4-fluorophenyl)-2-hydroxy-1-((4-(methyloxy)phenyl)methyl)ethyl)-4-phenylbutyramide] | 130 to 131 °C |
| CC(C)(C)OC(=O)N[C@H](Cc1ccc(C#N)cc1)[C@@H](O)c1ccc(F)cc1 (racemic) [Example 152, tert-butyl N-[(1RS,2SR)-1-(4-cyanobenzyl)-2-(4-fluorophenyl)-2-hydroxyethyl]carbamate] | 203 to 204 °C |
| N#Cc1ccc(C[C@@H](NC(=O)c2ccc(F)c3ccccc23)[C@@H](O)c2ccc(F)cc2)cc1 (racemic) [Example 153, N-[(1RS,2SR)-1-(4-cyanobenzyl)-2-(4-fluorophenyl)-2-hydroxyethyl]-4-fluoronaphthalene-1-carboxamide] | 248 to 249 °C |
| CC(C)c1ccc(C[C@@H](NC(=O)c2ccc(F)c3ccccc23)[C@@H](O)c2ccc(F)cc2)cc1 (racemic) [Example 154, 4-fluoro-N-[(1RS,2SR)-2-(4-fluorophenyl)-2-hydroxy-1-(4-isopropylbenzyl)ethyl]naphthalene-1-carboxamide] | 189 to 192 °C |
| O=C(N[C@H](Cc1ccc(C(F)(F)F)c(F)c1)[C@@H](O)c1ccc(F)cc1)c1ccc(F)c2ccccc12 (racemic) [Example 156, N-((1RS,2SR)-2-(4-fluorophenyl)-1-((3-fluoro-4-(trifluoromethyl)phenyl)methyl)-2-hydroxyethyl)-4-fluoro-1-naphthalenecarboxamide] | 212 to 213 °C |
| O=C(CCc1ccccc1)N[C@H](Cc1ccc(C(F)(F)F)c(F)c1)[C@@H](O)c1ccc(F)cc1 (racemic) [Example 157, N-((1RS,2SR)-2-(4-fluorophenyl)-1-((3-fluoro-4-(trifluoromethyl)phenyl)methyl)-2-hydroxyethyl)-3-phenylpropanamide] | 126 to 127 °C |
| O=C(N[C@H](Cc1cccc(Oc2ccccc2)c1)[C@@H](O)c1ccc(F)cc1)c1ccc(F)c2ccccc12 (racemic) [Example 160, 4-fluoro-N-((1RS,2SR)-2-(4-fluorophenyl)-2-hydroxy-1-((3-(phenyloxy)phenyl)methyl)ethyl)-1-naphthalenecarboxamide] | 120 to 121 °C |
| O=C(N[C@H](Cc1ccc(C(F)F)cc1)[C@@H](O)c1ccc(F)cc1)c1ccc(F)c2ccccc12 (racemic) [Example 165, N-[(1RS,2SR)-1-[4-(difluoromethyl)benzyl]-2-(4-fluorophenyl)-2-hydroxyethyl]-4-fluoronaphthalene-1-carboxamide] | 212 to 213 °C |
| CC(F)(F)c1ccc(C[C@@H](NC(=O)c2ccc(F)c3ccccc23)[C@@H](O)c2ccc(F)cc2)cc1 (racemic) [Example 166, N-[(1RS,2SR)-1-[4-(1,1-difluoroethyl)benzyl]-2-(4-fluorophenyl)-2-hydroxyethyl]-4-fluoronaphthalene-1-carboxamide] | 220 to 221 °C |
| O=C(N[C@H](Cc1ccc2c(c1)OC(F)(F)O2)[C@@H](O)c1ccc(F)cc1)c1ccc(F)c2ccccc12 (racemic) [Example 167, N-[(1RS,2SR)-1-[(2,2-difluoro-1,3-benzodioxol-5-yl)methyl]-2-(4-fluorophenyl)-2-hydroxyethyl]-4-fluoronaphthalene-1-carboxamide] | 219 to 220 °C |
| CC(C)(C)OC(=O)N[C@H](Cc1cnc(C(F)(F)F)s1)[C@@H](O)c1ccc(F)cc1 (racemic) [Example 168, tert-butyl N-[(1RS,2SR)-2-(4-fluorophenyl)-2-hydroxy-1-[[2-(trifluoromethyl)-1,3-thiazol-5-yl]methyl]ethyl]carbamate] | 137 to 138 °C |
| O=C(N[C@H](Cc1cnc(C(F)(F)F)s1)[C@@H](O)c1ccc(F)cc1)c1ccc(F)c2ccccc12 (racemic) [Example 169, 4-fluoro-N-[(1RS,2SR)-2-(4-fluorophenyl)-2-hydroxy-1-[[2-(trifluoromethyl)-1,3-thiazol-5-yl]methyl]ethyl]naphthalene-1-carboxamide] | 197 to 198 °C |
| O=C(N[C@H](Cc1cccc(OCC(F)(F)F)c1)[C@@H](O)c1ccc(F)cc1)c1ccc(F)c2ccccc12 (racemic) [Example 170, N-((1RS,2SR)-2-(4-fluorophenyl)-2-hydroxy-1-((3-(2,2,2-trifluoroethoxy)phenyl)methyl)ethyl)-4-fluoro-1-naphthalenecarboxamide] | 192 to 193 °C |
| O=C(N[C@H](Cc1cccc(OCC(F)(F)C(F)F)c1)[C@@H](O)c1ccc(F)cc1)c1ccc(F)c2ccccc12 (racemic) [Example 172, N-((1RS,2SR)-2-(4-fluorophenyl)-2-hydroxy-1-((3-(2,2,3,3-tetrafluoropropyloxy)phenyl)methyl)ethyl)-4-fluoro-1-naphthalenecarboxamide] | 160 to 161 °C |
| O=C(N[C@H](Cc1ccc(C(F)(F)F)cc1)[C@@H](O)c1ccccc1)c1ccc(F)c2ccccc12 (racemic) [Example 174, 4-fluoro-N-((1RS,2SR)-2-hydroxy-2-phenyl-1-((4-(trifluoromethyl)phenyl)methyl)ethyl)-1-naphthalenecarboxamide] | 217 to 218 °C |
| O=C(CCc1ccccc1)N[C@H](Cc1ccc(C(F)(F)F)cc1)[C@@H](O)c1ccccc1 (racemic) [Example 175, N-((1RS,2SR)-2-hydroxy-2-phenyl-1-((4-(trifluoromethyl)phenyl)methyl)ethyl)-3-phenylpropanamide] | 147 to 148 °C |
| O=C(N[C@H](Cc1ccc(C(F)(F)F)cc1)[C@@H](O)c1cccc(F)c1)c1ccc(F)c2ccccc12 (racemic) [Example 176, 4-fluoro-N-((1RS,2SR)-2-(3-fluorophenyl)-2-hydroxy-1-((4-(trifluoromethyl)phenyl)methyl)ethyl)-1-naphthalenecarboxamide] | 200 to 201 °C |
